The values that follow come from ChEMBL document CHEMBL1133530, “Classification of multidrug-resistance reversal agents using structure-based descriptors and linear discriminant analysis” (2000).

This experiment is filed under the species Mus musculus. As to the kind of experiment: Tested for the multidrug resistance reversal activity against P388 murine leukemia cell line, activity is expressed as RF(ED50 with no adriamycin (ADR)/ED50 with 200 nM ADR). It counts as functional.

On to `CCN(CC)CCOC1CCC2(C)C(=CCC3C4CCC(=O)C4(C)CCC32)C1` (stereo not drawn), for which the RF is 60.
For the molecule `COc1ccc(CCC2NCCc3cc(OC)c(OC)cc32)cc1` (stereo not drawn), the RF was found to be 100.
As for `O=C(OCCN1CCN(CCOC(=O)C(c2ccccc2)c2ccccc2)CC1)C(c1ccccc1)c1ccccc1`, the figure is 300.
Under `CCCCc1oc2ccccc2c1C(=O)c1cc(I)c(OCCN(CC)CC)c(I)c1` [AMIODARONE] stands 5.6.
Under `COc1ccc(CCNCC(O)COc2cccc(C)c2)cc1OC` (stereo not drawn) [BEVANTOLOL] stands 50.
As to `NCCc1ccccc1` [PHENETHYLAMINE], the RF was determined as 1.
As for `COc1ccc(CCN(C)CCCC(C#N)(c2ccc(OC)c(OC)c2)C(C)C)cc1OC` (stereo not drawn) [VERAPAMIL], the figure is 100; as for `OCCN1CCN(CC/C=C2/c3ccccc3Sc3ccc(Cl)cc32)CC1` [ZUCLOPENTHIXOL], 15.
